Values after ≈ are worked out from the molar mass of the structure shown.
Key:
DU145 = test: MTT proliferation assay, DU145; assay type: cell-based; details: Homo sapiens, DU-145; Prostate, DU145, 120 h of exposure
Experimental: (§1) Proliferation Assays. IC50 values were determined for each cell line. Cells were seeded in 96-well plates at an appropriate cell density as determined from growth kinetics analysis and cultured for 5 days in the absence and presence of the test compounds. Cell proliferation was assessed after the addition of 20 μl of 3-4,5 dimethylthiazol-2,5-diphenyl tetrazolium bromide (MTT, 5 mg/ml in PBS, Sigma) for 5 hrs at 37° C. according to manufacturer's instructions. IC50 values were calculated from semi-log plots of % of control proliferation on the y-axis against log dose on the x-axis.
(§2) Anti-proliferative Activity of Isoflavonoid Derivatives. IC50 values were determined for each cell line after 120 h of exposure.

COLO205 = test: MTT proliferation assay, COLO205; assay type: cell-based, human; details: Homo sapiens, COLO 205; CRC, COLO205, 120 h of exposure
Experimental: The human non-small cell lung adenocarcinoma lines NCI-H1299 (CRL-5803), NCI-H460 (HTB-177), NCI-H358 (CRL-5807), NCI-H838 (CRL-5844), the human colorectal adenocarcinoma lines COLO 205 (CCL-222), HCT-15 (CCL-225) and the human gastric cancer cell line NCI-N87 (CRL-5822) were cultured in RPMI 1640 medium containing 2 g/L sodium bicarbonate (Hyclone/Invitrogen) supplemented with 2 mM L-glutamine (Gibco) 1 mM sodium pyruvate (Sigma), 10 mM HEPES (Sigma) and 4500 mg/L glucose (Sigma). The human non-small cell lung adenocarcinoma line NCI-H2126 (CCL-256) was cultured in DMEM:F12(1:1) (Hyclone/Invitrogen) containing 2.5 mM L-glutamine 2.4 g/L sodium bicarbonate supplemented with 5% fetal bovine serum (FBS), an additional 2 mM L-glutamine, 15 mM HEPES, 0.005 mg/ml insulin (Sigma), 0.01 mg/ml transferrin (Sigma), 30 nM sodium selenite (Sigma), 10 nM hydrocortisone (Sigma) and 10 nM beta-estradiol (Sigma). The human colorectal adenocarcinoma line HT-29 (HTB-38) and the human gastric cancer cell lines OE-19 (#96071721) and MKN1 (JCRB0252) were cultured in RPMI 1640 media supplemented with 2 mM L-glutamine.
as §1, §2

CP70 = test: MTT proliferation assay, CP70; assay type: cell-based
Experimental: as §1, §2

HepG2 = test: MTT proliferation assay, HepG2; assay type: cell-based, human; details: Homo sapiens; Liver, HepG2, 120 h of exposure
Experimental: The human hepatocellular carcinoma lines HepG2 (HB-8065), SK-HEP-1 (HTB-52) and the normal human lung fibroblast line IMR-90 (CCL-186) were cultured in Minimum Essential Eagles Medium containing 2 mM L-glutamine, 2.2 g/L sodium bicarbonate, supplemented with 1 mM sodium pyruvate and 0.1 mM non-essential amino acids. The human hepatocellular carcinoma line JHH-1 (JCRB1062) was cultured in Williams E Medium (Invitrogen) containing 2.2 g/L sodium bicarbonate, supplemented with 2 mM L-glutamine. The hepatocellular carcinoma line HuH-7 (JCRB0403) was cultured in DMEM, supplemented with 2 mM L-glutamine.
as §1, §2

4405 = test: MTT proliferation assay, 4405; assay type: cell-based; details: Melanoma, 4405, 120 h of exposure
Experimental: as §1, §2

[1] = Solubility in Captisol solution; assay type: physicochemical; details: 20% Captisol solution, aqueous with cosolvent or surfactant or cyclodextrin, 25° C., read-out: solubility limit
Experimental: (20% Captisol®). Formulation is carried out under aseptic conditions. Sterility is achieved by terminal filtration through a 0.22 micron filter.

[2] = tested on: A2780 ovarian cancer cells; test: Combination with carboplatin, proliferation of A2780 cells; assay type: cell-based; details: 0.5, 1 and 5 μM of compound plus 0.4 μM carboplatin

Oc1ccc([C@H]2c3ccc(O)cc3OC[C@H]2c2ccc(O)cc2)cc1 [Compound 31, d-cis-3-(4-hydroxyphenyl)-4-(4-hydroxyphenyl)chroman-7-ol]
IC50 (DU145): 150 to 500 nM | IC50 (COLO205): 1600 to 10000 nM | IC50 (CP70; 120 h, Ovarian, CP70, 120 h of exposure): 510 to 1500 nM | IC50 (CP70; Table 2, Ovarian, CP70, 120 hrs of exposure): 150 to 500 nM | IC50 (HepG2): 150 to 500 nM | IC50 4405: 150 to 500 nM | solubility [1]: 27.9 mg/mL (≈ 83.4 mM) | cell kill level observed (no IC50 for carboplatin achieved) [2]: 25-40 % of control

Source: patent publication US12329739B2, “Isoflavonoid compounds and methods for the treatment of cancer” (Aardvark Therapeutics, Inc., priority 2010, dated 2025)
